# Laboratory results: patent US20170166592A1, “AZA-BENZIMIDAZOLE INHIBITORS OF PAD4” (Padlock Therapeutics, Inc., priority 2015, published 2017)
# pIC50: −log10 of the molar value. Counter-ions that a name gives are not always drawn. Like-named read-outs stand apart in the source and are kept apart here.
# Experiments:
# hPAD4 = hPAD4 (Homo sapiens, UniProt Q9UM07); assay: PAD4 inhibition assay, RapidFire mass spectrometry (hPAD4 RFMS); assay type: biochemical; conditions: for pIC50: 100 nM hPAD4 enzyme, 50 μM substrate peptide, 65 mins at 37° C., read-out: hPAD4 RFMS IC50; for IC50: read-out: hPAD4 RFMS pIC50 (converted)
# Experimental: Compounds of the present invention were assayed as inhibitors of PAD4 using the assay protocol described below.
# Compounds were solubilised in 100% DMSO to achieve 100 mM final compound concentration. Compound stock solutions were stored at RT. A series of dilutions were prepared in DMSO and mixed 8 times with 20 μL, mixing volume. Final assay conditions were as follows:
# Assay buffer (as aforementioned): 100 mM Tris-HCl (pH 7.6), 2 mM DTT, 1 mM CaCl2
# Final concentrations: • 100 nM hPAD4 enzyme • 50 μM (8-fold sub-Km) substrate peptide • 0.5% DMSO
# Total incubation time: 65 mins at 37° C.
# Stop solution: 40 μl 5% TCA in ACN
# 0.25 μL of compound solution was added to 10 μL of 200 nM PAD4 in assay buffer (100 mM Tris-HCl pH 7.6, 2 mM DTT). After 5 mins, 10 μL of 100 μM of substrate in buffer (100 mM Tris-HCl pH 7.6, 2 mM DTT, 2 mM CaCl2) was added and the reaction incubated for 60 mins at 37 ° C. The enzymatic reaction was quenched by addition of 40 μl of 5% TCA in ACN (1.7% TCA final concentration) stop solution. Arginine containing substrate and citrulline containing product (+1 Da mass shift) were subjected to solid phase extraction on Agilent RapidFire (RF) 300 system and detected on a coupled, triple quadrupole Agilent 6460 QQQ mass spectrometry (MS) device under application of multiple reaction monitoring (MRM) for quantitation.
# mPAD4 = mPAD4 (Mus musculus, UniProt Q9Z183); assay: PAD4 inhibition assay, RapidFire mass spectrometry (mPAD4 RFMS); assay type: biochemical; conditions: for IC50: pIC50=-log(IC50), read-out: mPAD4 RFMS pIC50 (converted); for pIC50: read-out: mPAD4 RFMS IC50
# mPAD4, sequence (Q9Z183 whole entry): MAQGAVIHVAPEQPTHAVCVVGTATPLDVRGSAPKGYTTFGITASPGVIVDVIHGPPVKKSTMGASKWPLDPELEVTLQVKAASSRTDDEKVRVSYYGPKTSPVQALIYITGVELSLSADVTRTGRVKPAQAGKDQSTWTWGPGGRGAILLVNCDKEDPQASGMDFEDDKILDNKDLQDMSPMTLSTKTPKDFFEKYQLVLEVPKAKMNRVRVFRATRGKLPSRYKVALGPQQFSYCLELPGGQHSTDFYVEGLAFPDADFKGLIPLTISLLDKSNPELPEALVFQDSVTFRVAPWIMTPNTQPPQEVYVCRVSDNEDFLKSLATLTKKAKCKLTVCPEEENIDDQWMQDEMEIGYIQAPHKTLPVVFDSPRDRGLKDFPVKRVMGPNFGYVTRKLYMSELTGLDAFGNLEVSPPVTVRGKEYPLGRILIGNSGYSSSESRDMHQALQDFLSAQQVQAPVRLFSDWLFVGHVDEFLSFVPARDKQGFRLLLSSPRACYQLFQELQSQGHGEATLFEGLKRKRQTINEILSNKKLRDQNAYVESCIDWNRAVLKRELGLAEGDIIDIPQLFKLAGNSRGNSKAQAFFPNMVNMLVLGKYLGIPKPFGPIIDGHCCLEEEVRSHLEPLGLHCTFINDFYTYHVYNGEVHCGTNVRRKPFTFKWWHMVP
# hPAD4, sequence (Q9UM07 whole entry): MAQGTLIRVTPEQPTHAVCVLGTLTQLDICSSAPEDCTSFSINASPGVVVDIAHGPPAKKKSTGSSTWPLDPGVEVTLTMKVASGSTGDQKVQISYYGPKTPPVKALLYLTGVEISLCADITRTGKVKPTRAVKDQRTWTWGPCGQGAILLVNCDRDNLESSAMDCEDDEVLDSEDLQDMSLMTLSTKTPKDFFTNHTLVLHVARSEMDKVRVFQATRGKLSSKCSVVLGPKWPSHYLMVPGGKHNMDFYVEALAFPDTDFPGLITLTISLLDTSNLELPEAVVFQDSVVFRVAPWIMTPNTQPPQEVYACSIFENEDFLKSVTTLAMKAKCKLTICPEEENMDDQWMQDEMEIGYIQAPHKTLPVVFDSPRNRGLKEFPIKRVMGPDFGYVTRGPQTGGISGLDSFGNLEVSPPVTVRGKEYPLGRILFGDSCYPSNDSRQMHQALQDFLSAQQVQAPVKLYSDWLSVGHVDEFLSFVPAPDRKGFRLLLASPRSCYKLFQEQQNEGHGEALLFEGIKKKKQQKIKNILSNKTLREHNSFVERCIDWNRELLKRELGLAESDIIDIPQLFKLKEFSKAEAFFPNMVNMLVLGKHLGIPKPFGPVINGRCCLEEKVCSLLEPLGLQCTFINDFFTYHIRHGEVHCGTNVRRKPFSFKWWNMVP
SMILES,pIC50 (hPAD4),IC50 (hPAD4; pIC50=-log(IC50)),IC50 (mPAD4),pIC50 (mPAD4),hPAD4 RFMS pIC50 (hPAD4; pIC50=-log(IC50))
"Cn1c(-c2cc3cccnc3n2CC2CC2)nc2cc(C(=O)N3CC[C@H]4CCN[C@H]4C3)cnc21 (single isomer, unassigned) [Compound I-9, hydrochloride]",≤ 5.00,10 to 100 µM,–,–,–
"Cn1c(-c2cc3cccnc3n2CC2CC2)nc2cc(C(=O)N3CC[C@@H]4CCN[C@@H]4C3)cnc21 (single isomer, unassigned) [Compound I-10, hydrochloride]",5.30 to 6.00,1 to 10 µM,1 to 10 µM,5.00 to 5.30,–
Cn1c(-c2cc3cccnc3n2CC(F)(F)F)nc2cc(C(=O)N3CC[C@@H]4CCN[C@@H]4C3)cnc21 [Compound I-1],≤ 5.00,10 to 100 µM,–,–,–
Cn1c(-c2cc3cccnc3n2CC(F)(F)F)nc2cc(C(=O)N3CC[C@H]4CCN[C@H]4C3)cnc21 [Compound I-3],≤ 5.00,–,–,–,–
CCn1c(-c2nc3cc(C(=O)N4CCC[C@@H](N)C4)cnc3n2CC)cc2cccnc21 [Compound I-4],5.00 to 5.30,1 to 10 µM,1 to 10 µM,5.30 to 6.00,–
Cn1c(-c2cc3cccnc3n2CC(F)(F)F)nc2cc(C(=O)N3CCC[C@@H](N)C3)cnc21 [Compound I-5],≤ 5.00,10 to 100 µM,–,–,–
Cn1c(-c2cc3cccnc3n2CC(F)(F)F)nc2cc(C(=O)N3CCC4CCNC4C3)cnc21 (centres unmarked) [Compound I-6],≤ 5.00,10 to 100 µM,–,–,–
Cn1c(-c2cc3cccnc3n2CC2CC2)nc2cc(C(=O)N3CCC[C@@H](N)C3)cnc21 [Compound I-7],5.30 to 6.00,1 to 10 µM,≤ 1 µM,≥ 6.00,–
"Cn1c(-c2cc3cccnc3n2CC2CC2)nc2cc(C(=O)N3CCC4CCNC4C3)cnc21 (centres unmarked) [Compound I-8, 2-[1-(cyclopropylmethyl)-1H-pyrrolo[2,3-b]pyridin-2-yl]-3-methyl-6-{octahydro-1H-pyrrolo[2,3-c]pyridine-6-carbonyl}-3H-imidazo[4,5-b]pyridine hydrochloride]",5.00 to 5.30,1 to 10 µM,–,–,–
Cn1c(-c2cc3cccnc3n2CC(C)(F)F)nc2cc(C(=O)N3CCC[C@@H](N)C3)cnc21 [Compound I-11],5.00 to 5.30,1 to 10 µM,1 to 10 µM,5.00 to 5.30,–
N[C@@H]1CCCN(C(=O)c2cnc3c(c2)nc(-c2cc4cccnc4n2CC2CC2)n3CC(F)F)C1 [Compound I-12],5.30 to 6.00,1 to 10 µM,1 to 10 µM,5.30 to 6.00,–
Cn1c(-c2cc3cccnc3n2CC2CC2)nc2cc(C(=O)N3C[C@@H](N)C[C@H](F)C3)cnc21 [Compound I-13],5.30 to 6.00,1 to 10 µM,≤ 1 µM,≥ 6.00,–
Cn1c(-c2cc3cc(F)c(F)nc3n2CC2CC2)nc2cc(C(=O)N3CCC[C@@H](N)C3)cnc21 [Compound I-14],5.30 to 6.00,1 to 10 µM,≤ 1 µM,≥ 6.00,–
CCn1c(-c2cc3ccc(OC)nc3n2CC2CC2)nc2cc(C(=O)N3CCC[C@@H](N)C3)cnc21 [Compound I-16],≥ 6.00,≤ 1 µM,≤ 1 µM,≥ 6.00,–
Cn1c(-c2cc3cccnc3n2CC(F)(F)F)nc2cc(C(=O)N3CCC4CCNC4C3)cnc21 (centres unmarked) [Compound I-19],≤ 5.00,–,–,–,–
Cn1c(-c2cc3cccnc3n2CC(F)(F)F)nc2cc(C(=O)N3CC[C@H]4CCN[C@H]4C3)cnc21 [Compound I-20],≤ 5.00,10 to 100 µM,–,–,–
Cn1c(-c2cc3cccnc3n2CC(F)(F)F)nc2cc(C(=O)N3CC[C@@H]4CCN[C@@H]4C3)cnc21 [Compound I-21],≤ 5.00,–,–,–,E/F
CCn1c(-c2cc3cccnc3n2CC2CC2)nc2cc(C(=O)N3CCC[C@@H](N)C3)cnc21 [Compound I-22],5.30 to 6.00,1 to 10 µM,≤ 1 µM,≥ 6.00,–
Cn1c(-c2cc3cccnc3n2CC2CC2)nc2cc(C(=O)N3CCC4CCNC4C3)cnc21 (centres unmarked) [Compound I-24],5.00 to 5.30,–,–,–,–
